Laboratory results reported in US20050004227A1, “Cell growth inhibitor” (priority 2001, published 2005).
Read-outs that look alike come from different tables or passages of the source.

How the values were obtained:
Assay type in all cases: cell-based
PepT1 = biological target: T1, PepT1 (Homo sapiens, UniProt P46059); experiment: Inhibition of [14C] glycylsarcosine uptake into Caco-2 cells
T1 construct: In Caco-2 cells, only PepT1 was expressed; endogenous in cells; host or cells: Caco-2 (human colon cancer cell line)
T1 sequence (P46059 1-708): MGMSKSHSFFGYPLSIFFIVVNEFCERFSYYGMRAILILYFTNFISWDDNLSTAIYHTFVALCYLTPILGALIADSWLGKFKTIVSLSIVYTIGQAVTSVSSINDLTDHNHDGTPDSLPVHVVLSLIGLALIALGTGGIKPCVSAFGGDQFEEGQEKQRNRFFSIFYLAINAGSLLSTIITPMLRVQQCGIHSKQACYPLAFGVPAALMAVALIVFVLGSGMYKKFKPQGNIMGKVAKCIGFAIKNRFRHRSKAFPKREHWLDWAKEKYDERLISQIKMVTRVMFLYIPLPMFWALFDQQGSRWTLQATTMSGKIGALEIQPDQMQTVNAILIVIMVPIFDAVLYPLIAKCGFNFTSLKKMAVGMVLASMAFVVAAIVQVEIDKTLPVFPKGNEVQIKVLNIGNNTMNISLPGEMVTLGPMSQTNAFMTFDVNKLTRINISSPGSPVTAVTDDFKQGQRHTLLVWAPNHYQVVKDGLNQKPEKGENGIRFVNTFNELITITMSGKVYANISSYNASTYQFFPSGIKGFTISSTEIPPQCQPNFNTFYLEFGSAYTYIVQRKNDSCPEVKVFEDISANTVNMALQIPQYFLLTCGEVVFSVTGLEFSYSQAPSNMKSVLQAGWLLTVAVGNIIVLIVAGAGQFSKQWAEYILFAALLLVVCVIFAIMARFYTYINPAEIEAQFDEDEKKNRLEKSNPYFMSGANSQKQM
Procedure: AT-264's ability to inhibit PepT was examined using a human colon cancer cell line (Caco-2 cells). The results were that the IC50 for uptake of radioactive substrate [^14C] glycylsarcosine into cells was 100 μM (FIG. 1). In Caco-2 cells, only PepT1 was expressed, and PepT1 function was considered to be inhibited by AT-264. The purity of AT-264 used in the present experiment was approximately 50% to 60%, and the actual IC50 was thought to be about 50 μM or so.

[1] = test system: human pancreatic cancer cell line AsPC-1; experiment: Cell growth inhibition of AsPC-1, MTS assay
Procedure: (§1) AT-264 was dissolved in RPMI1640—10 mM Hepes (hereinafter, abbreviated to ‘the medium’) containing 0.5% ethanol and 0.5% DMSO to prepare 2.5 mM AT-264 solution. Then, this solution was diluted with the medium to prepare 0.625 mM and 0.0625 mM AT-264 solutions.
A 5×10^4 cells/mL solution of human pancreatic cancer cell line AsPC-1 was prepared using a medium containing 50% FBS. This suspension was plated onto a 96-well plate pre-coated with Collagen type I at 40 μL/well (2×10^3 cells), and 160 μL of the AT-264 solution was added. This was cultured for six days in a CO2 incubator (on the second day of culturing, 100 units/mL penicillin and 0.1 mg/mL streptomycin were added). On the sixth day of culturing, the number of viable cells was quantified by MTS assay.

[2] = test system: human pancreatic cancer cell line BxPC-3; experiment: Cell growth inhibition of BxPC-3, MTS assay
Procedure: as §1, with “Hepes with 100 units/mL penicillin and 0.1 mg/mL streptomycin” for “Hepes”, “Furthermore,” for “Then,”
5×10^4 cells/mL solution of BxPC-3 was prepared using the medium containing 50% FBS. This suspension was plated onto a 96-well plate pre-coated with Collagen type I at 40 μL/well (2×10^3 cells), and 160 μL of AT-264 solution was added. This was cultured for six days in a CO2 incubator, and on the sixth day of culturing, the number of viable cells was quantified by MTS assay.

human PepT2 = biological target: T2, human PepT2 (Homo sapiens, UniProt Q16348); experiment: Inhibition of [3H] glycylsarcosine uptake into BaF3/PepT2 cells
T2 construct: expressed in transfected cells; host or cells: BaF3 (murine bone marrow-derived cell line)
T2 sequence (Q16348 1-729): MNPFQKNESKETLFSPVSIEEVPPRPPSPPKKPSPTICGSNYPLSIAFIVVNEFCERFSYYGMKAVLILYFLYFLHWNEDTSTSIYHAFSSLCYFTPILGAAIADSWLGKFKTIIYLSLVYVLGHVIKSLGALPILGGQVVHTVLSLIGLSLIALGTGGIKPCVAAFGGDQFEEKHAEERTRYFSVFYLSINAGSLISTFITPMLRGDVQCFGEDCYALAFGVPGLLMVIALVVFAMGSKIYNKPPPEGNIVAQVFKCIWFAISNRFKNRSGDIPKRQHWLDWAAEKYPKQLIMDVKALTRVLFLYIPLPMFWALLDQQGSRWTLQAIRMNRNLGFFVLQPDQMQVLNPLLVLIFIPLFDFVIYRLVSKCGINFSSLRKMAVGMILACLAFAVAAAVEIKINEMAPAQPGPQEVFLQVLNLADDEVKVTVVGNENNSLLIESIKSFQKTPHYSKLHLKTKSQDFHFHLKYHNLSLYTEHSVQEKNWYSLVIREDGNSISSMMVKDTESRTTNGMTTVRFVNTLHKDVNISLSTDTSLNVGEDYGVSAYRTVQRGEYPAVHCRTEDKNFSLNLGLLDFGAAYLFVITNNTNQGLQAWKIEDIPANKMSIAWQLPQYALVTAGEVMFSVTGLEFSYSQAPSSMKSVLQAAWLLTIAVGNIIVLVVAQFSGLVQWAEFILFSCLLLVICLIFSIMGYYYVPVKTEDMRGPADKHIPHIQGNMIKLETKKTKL
Text: The ability of AT-264 to inhibit PepT2 was examined using a murine bone marrow-derived cell line BaF3 in which human PepT2 is forced to be expressed (hereinafter, abbreviated to BaF3/PepT2).

IC50 (PepT1; AT-264 purity approximately 50% to 60%, read-out: IC50 for uptake of radioactive substrate [14C] glycylsarcosine into cells): 100 µM
IC50 (PepT1; estimated from purity of approximately 50% to 60%, read-out: actual IC50 (corrected for purity of AT-264)): ~50 µM
Structure (SMILES): N=C(N)c1cccc(CC(NS(=O)(=O)NCc2cccc3ccccc23)C(=O)N2CCCCC2C(=O)O)c1 (stereo not drawn) [AT-264]
Cell growth inhibition ([1]; AsPC-1, 0.5 mM AT-264, six days culture): slight
inhibition at 2000 µM ([1]; Homo sapiens, ASPC1, 144 h, AsPC-1, 2 mM AT-264, six days culture): ~30%
Morphological changes to AsPC-1 under the microscope ([1]; in the presence of AT-264): not observed
inhibition at 500 µM ([2]; Homo sapiens, 144 h, BxPC-3, 0.5 mM AT-264, six days culture): ~20%
inhibition at 2000 µM ([2]; Homo sapiens, 144 h, BxPC-3, 2 mM AT-264, six days culture): ~75%
Morphological changes to BxPC-3 under the microscope ([2]; in the presence of AT-264): not observed
uptake of radioactive substrate [3H] glycylsarcosine into cells (human PepT2): inhibited in a concentration-dependent manner
